Measured values as given in patent US20080145313A1, “Compositions and Methods for the Treatment and Prevention of Neoplastic Disorders” (Genesis Research & Development Corporation Limited, priority 2006, published 2008).
Marks after values point to notes of the source that are not given here.

Test system: A549 cells
Experiment: Growth inhibition of siRNA-transfected A549 cells, SYBR Green I DNA content
Assay type: cell-based, human
Conditions: for growth inhibition, A549 cells: standardized against control siRNA; for Growth Inhibition in A549 cells by 10 nM siRNA: transporter gene targets
In short: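 Growth read-out: cellular DNA quantified with SYBR Green I (485/535 nm) 96 h after transfection, cells frozen, thawed and lysed in PBS/1% Triton X-100, pH 7. Cells (A549, 5×10^3 cells/cm^2) received 10 nM siRNA by RNAiMAX; non-specific siRNA served as control; triplicate wells averaged.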

[1] = 10 nM siRNA, DNA content 96 hours after transfection

## SEQ ID NO: 4985: siRNA targeting YBX1 (chain 1 CAGCCTAGAGAGGACGGCAATGAAG; chain 2 CAGCCUAGAGAGGACGGCAAUGAAG; chemistry not given here; one strand in two spellings)
5 nM siRNA
  growth inhibition, A549 cells: +** (At least 20% inhibition)

## SEQ ID NO: 5307: Stealth siRNA targeting RRM2 (chain 1 AATTCATCCCAATGAGCTTCACAGG; chain 2 AAUUCAUCCCAAUGAGCUUCACAGG; Stealth siRNA, chemical pattern not given here; one strand in two spellings)
[1]
  Growth Inhibition in A549 cells: ++ (inhibits by at least 75%)

## SEQ ID NO: 4984: siRNA targeting YBX1 (chain 1 CAAGGTAGACCAGTGAGGCAGAATA; chain 2 CAAGGUAGACCAGUGAGGCAGAAUA; chemistry not given here; one strand in two spellings)
5 nM siRNA
  growth inhibition, A549 cells: ++** (At least 50% inhibition)

## SEQ ID NO: 4983: siRNA targeting YBX1 (chain 1 TACTGTGGTCGACGCCCATAGGGTC; chain 2 UACUGUGGUCGACGCCCAUAGGGUC; chemistry not given here; one strand in two spellings)
10 nM siRNA
  growth inhibition, A549 cells: + (At least 20% inhibition)

## SEQ ID NO: 4982: siRNA targeting YBX1 (chain 1 TTTGCTGGTAATTGCGTGGAGGACC; chain 2 UUUGCUGGUAAUUGCGUGGAGGACC; chemistry not given here; one strand in two spellings)
10 nM siRNA
  growth inhibition, A549 cells: +++ (At least 70% inhibition)

## SEQ ID NO: 4924: siRNA targeting SLC16A1 (MCT1) (chain 1 TTAGACTTATCTTTCCCTGCCTTGG; chain 2 UUAGACUUAUCUUUCCCUGCCUUGG; chemistry not given here; one strand in two spellings)
[1]
  Growth Inhibition in A549 cells by 10 nM siRNA: ++ (inhibits by at least 75%)

## SEQ ID NO: 4932: siRNA targeting SLC29A1 (ENT1) (chain 1 TGATAAAGTAGCCGAAGGCACTTTC; chain 2 UGAUAAAGUAGCCGAAGGCACUUUC; chemistry not given here; one strand in two spellings)
[1]
  Growth Inhibition in A549 cells by 10 nM siRNA: − (no growth inhibition)
